Patent EP0979098B1, “METHOD OF TREATING HYPERPROLACTINEMIA AND PROLACTINOMAS” (Cedars-Sinai Medical Center, priority 1997, dated 1998)
Positions of bridges follow the written chain, without caps; N, C: chain ends. Non-standard residues stand in square brackets, D forms with d. Residues, ends and D or L forms follow the SMILES beside them.

Test system: Cells derived from six prolactin-secreting pituitary adenomas
Test: Prolactin secretion from cultured prolactinoma cells (immunoradiometric assay of PRL in medium)
Assay type: cell-based, human
Conditions: for response of prolactin secretion (in words): cells from the four large tumors (tumors 1, 2, 3 and 4); for suppressed prolactin release / effect on prolactin production (in words): tumor 4 cell cultures; for suppressed prolactin release: p<0.05; for effect on prolactin release (in words): adenomatous cell cultures of tumor 1, 3 hours

Structure (SMILES)	response of prolactin secretion (in words)	Prolactin release inhibited versus controls (tumor 2 cell cultures, 10 nM, p < 0.0005)	suppressed prolactin (tumor 3 cell cultures, 10 nM and 100 nM, dose dependent, p < 0.05)	suppressed prolactin release	effect on prolactin release (in words)	effect on prolactin production (in words)
C[C@@H](O)[C@@H]1NC(=O)[C@H](CCCCN)NC(=O)[C@@H](Cc2c[nH]c3ccccc23)NC(=O)[C@H](Cc2ccccc2)NC(=O)[C@@H](NC(=O)[C@H](N)Cc2ccccc2)CSSC[C@@H](C(=O)N[C@H](CO)[C@@H](C)O)NC1=O [Octreotide]	failed to respond	–	–	–	–	–
C[C@@H](O)[C@@H]1NC(=O)[C@H](CCCCN)NC(=O)[C@@H](Cc2c[nH]c3ccccc23)NC(=O)[C@H](Cc2ccccc2)NC(=O)[C@H](Cc2ccccc2)NC(=O)[C@@H](N)CSSC[C@@H](C(N)=O)NC(=O)[C@H](Cc2ccccc2)NC1=O [BIM-23268] (H-CFF[dW]KTFC-NH2; disulfide 1-8)	suppression of prolactin secretion	38%	up to 29%	more than 30%	–	–
CC[C@@H]1NC(=O)[C@H](CCCCN)NC(=O)[C@@H](Cc2c[nH]c3ccccc23)NC(=O)[C@H](Cc2ccc(O)cc2)NC(=O)[C@@H](NC(=O)[C@H](N)Cc2ccccc2)CSSC[C@@H](C(=O)N[C@H](C(N)=O)[C@@H](C)O)NC1=O [BIM-23023]	–	–	–	–	did not affect prolactin release	–
CC(C)[C@@H]1NC(=O)[C@H](CCCCN)NC(=O)[C@@H](Cc2c[nH]c3ccccc23)NC(=O)[C@H](Cc2ccc(O)cc2)NC(=O)[C@@H](NC(=O)[C@H](N)Cc2ccc3ccccc3c2)CSSC[C@@H](C(=O)N[C@H](C(N)=O)[C@@H](C)O)NC1=O [Lanreotide]	failed to respond	–	–	–	did not affect prolactin release	–
CC[C@@H]1NC(=O)[C@H](CCCCN)NC(=O)[C@@H](Cc2c[nH]c3ccccc23)NC(=O)[C@H](Cc2ccc(O)cc2)NC(=O)[C@@H](NC(=O)[C@@H](Cc2ccccc2)NS(=O)(=O)CCN2CCN(CCO)CC2)CSSC[C@@H](C(=O)N[C@H](C(N)=O)[C@@H](C)O)NC1=O [BIM-23197]	failed to respond	–	–	–	did not affect prolactin release	modestly stimulated prolactin production
CC[C@@H]1NC(=O)[C@H](CCCCN)NC(=O)[C@@H](Cc2c[nH]c3ccccc23)NC(=O)[C@H](Cc2ccc(O)cc2)NC(=O)[C@@H](NC(=O)[C@@H](Cc2ccccc2)NC(=O)CN2CCN(CCO)CC2)CSSC[C@@H](C(=O)N[C@H](C(N)=O)[C@@H](C)O)NC1=O [BIM-23190]	failed to respond	–	–	–	did not affect prolactin release	modestly stimulated prolactin production
C[C@@H](O)[C@H](NC(=O)[C@H](Cc1ccccc1)NC(=O)[C@@H](NC(=O)[C@H](CCCCN)NC(=O)[C@@H](Cc1c[nH]c2ccccc12)NC(=O)[C@H](Cc1ccccc1)NC(=O)[C@H](Cc1ccccc1)NC(=O)[C@H](N)Cc1ccccc1)[C@@H](C)O)C(N)=O [BIM-23052, H-D-Phe-Phe-Phe-D-Trp-Lys-Thr-Phe-Thr-NH2] (H-[dF]FF[dW]KTFT-NH2)	suppression of prolactin secretion	–	–	more than 30%	–	–
